# Where two headings read alike, the source gives them in different places. Where a SMILES comes first, the peptide text is derived from it.
# Experiment: Chlorine dioxide compatibility: ClO2 decrease in 200 ppm ClO2 test samples containing an additive (UV/Vis absorption or titration)
# Assay type: physicochemical
# Settings: for Chlorine dioxide (ppm): 200 ppm ClO2 composition with sucralose 0.5 wt. %
# [1] = Table 2, 200 ppm ClO2 test sample, single additive at listed wt. %, interpolated to 8 hours
# [2] = Table 2, […], interpolated to 8 hours
# [3] = FIG. 1A, 200 ppm ClO2, single sweetener at 0.5 wt. %
# [4] = Table 3, 200 ppm ClO2 test sample, single additive at listed wt. %, interpolated to 8 hours
# [5] = Table 3, […], interpolated to 8 hours
compound,measurement,setting,value
"CC(C)[C@@H]1CC[C@@H](C)C[C@H]1O [Comp. 1, L-menthol]",ClO2 decrease @ 8 hrs,[1],1%
"CC12CCC(CC1=O)C2(C)C (stereo not shown) [Comp. 3, Camphor]",ClO2 decrease @ 8 hrs,[1],2%
"O=Cc1ccccc1 [compound 2, Benzaldehyde]",ClO2 decrease @ 8 hrs,[2],1%
"CC(C)[C@@H]1CC[C@@H](C)CC1=O [compound 4, Menthone]",ClO2 decrease @ 8 hrs,[1],4%
"CCNC(=O)C1CC(C)CCC1C(C)C (stereo not shown) [compound 5, Ethyl Menthane Carboxamide]",ClO2 decrease @ 8 hrs,[1],5%
"CC12CCC(CC1)C(C)(C)O2 [compound 6, Eucalyptol]",ClO2 decrease @ 8 hrs,[1],13%
"COC(=O)[C@H](Cc1ccccc1)NC(=O)[C@@H](N)CC(=O)O [compound 7, Aspartame] (H-Asp-Phe-OMe)",chlorine dioxide concentration versus time behaviour,[3],"steep immediate declines in chlorine dioxide concentration, followed by much more gradual declines"
same,ClO2 decrease @ 8 hrs,[1],2%
"O.O.O=C1NS(=O)(=O)c2ccccc21.[Na] [compound 9, Sodium saccharin Dihydrate]",ClO2 decrease @ 8 hrs,,3%
same,chlorine dioxide concentration versus time behaviour,,"steep immediate declines in chlorine dioxide concentration, followed by much more gradual declines"
"OC[C@H]1O[C@H](O[C@]2(CCl)O[C@H](CCl)[C@@H](O)[C@@H]2O)[C@H](O)[C@@H](O)[C@H]1Cl [compound 10, Sucralose]",chlorine dioxide concentration versus time behaviour,[3],"steep immediate declines in chlorine dioxide concentration, followed by much more gradual declines"
same,ClO2 decrease @ 8 hrs,[1],9%
same,chlorine dioxide present at 8 hours,interpolation of the data at 0.88 hours and 15.35 hours,166.5 ppm
same,Chlorine dioxide (ppm),time 0.25 hours,183 ppm
same,Chlorine dioxide (ppm),time 0.88 hours,168 ppm
same,Chlorine dioxide (ppm),time 15.35 hours,165 ppm
same,Chlorine dioxide (ppm),time 22.62 hours,165 ppm
same,Chlorine dioxide (ppm),time 70.58 hours,163 ppm
"OCc1ccccc1 [compound 12, Benzyl Alcohol]",ClO2 decrease @ 8 hrs,[1],8%
"CC(O)CO (stereo not shown) [compound 13, Propylene Glycol]",ClO2 decrease @ 8 hrs,[2],1%
"OCC(O)CO [compound 15, Glycerol]",ClO2 decrease @ 8 hrs,[1],1%
"CCOC(C)=O [compound 16, Ethyl Acetate]",ClO2 decrease @ 8 hrs,,3%
"CCO [compound 17, Ethanol]",ClO2 decrease @ 8 hrs,[1],4%
"CC(C)=O [compound 19, Acetone]",ClO2 decrease @ 8 hrs,,0.04%
"N[C@@H](CCC(=O)O)C(=O)O [compound 21, l-Glutamic Acid]",ClO2 decrease @ 8 hrs,[2],1%
"O=C1O[C@H]([C@@H](O)CO)C(O)=C1O [compound 28, Ascorbic Acid]",ClO2 decrease @ 8 hrs,[4],100%
"C/C=C/C=C/C(=O)O [compound 29, Sorbic Acid]",ClO2 decrease @ 8 hrs,[4],100%
"COc1ccc(C=O)cc1OC [compound 30, Methyl Vanillin]",ClO2 decrease @ 8 hrs,,100%
"CC=Cc1ccc(OC)cc1 [compound 31, Anethole]",ClO2 decrease @ 8 hrs,[5],100%
"CC1=CC(=O)NS(=O)(=O)O1 [compound 32, Acesulfame Potassium]",ClO2 decrease @ 8 hrs,,100%
same,chlorine dioxide concentration versus time behaviour,,consumed all of the chlorine dioxide within about the first hour
"C/C=C/C=C/C(=O)[O-].[K+] [compound 35, Potassium Sorbate]",ClO2 decrease @ 8 hrs,,99%
"NCCO [compound 38, Monoethanolamine]",ClO2 decrease @ 8 hrs,,92%
t-Cinnamaldehyde [compound 26],ClO2 decrease @ 8 hrs,[5],37%

# Reference: patent US9101562B2, “Additives for chlorine dioxide-containing compositions” (BASF CORPORATION, priority 2010, dated 2015)
